# Test results as given in patent publication US20120058133A1, “INHIBITION OF TRNA SYNTHETASES AND THERAPEUTIC APPLICATIONS THEREOF” (President and Fellows of Harvard College, priority 2009, published 2012).
# Entries after “also recorded” stand apart in the source; their conditions may differ.
# Experiments:
# EAE and CIA = settings: mouse, in vivo; cited from earlier work
# STAT3 phosphorylation = STAT3 phosphorylation in developing Th17 cells; type: cell-based, mouse
# Description: FIG. 3. […] FIG. 3A is a set of representative histograms displaying the kinetics of STAT3 phosphorylation in developing Th17 cells treated with or without HF. Resting naïve T cells (grey, shaded peak), T cells activated in the presence of TGFβ plus IL-6 (TGFβ/IL-6) treated with 10 nM MAZ1310 (light gray trace), 5 nM HF (medium gray trace), or 10 nM HF (dark gray trace). T cells were fixed at the indicated times and intracellular phospho-STAT3 staining was performed.
# FIG. 3B depicts western blot analysis of CD4^+ CD25^− T cells treated with 10 nM HF or 10 nM MAZ1310 and activated in the presence or absence of TGFβ plus IL-6. Whole cell lysates were generated at the indicated times following activation.
# All cell surface staining was performed in FACS buffer (PBS/2% FBS/0.1% NaN3) and antibodies were incubated with cells on ice for 20-30 minutes. Cells were washed with FACS buffer and fixed with FACS buffer plus 1% paraformaldehyde prior to data acquisition. For phospho-STAT3 intracellular staining, stimulated T cells cultured with or without TGFβ plus IL-6 for the indicated times were harvested on ice and fixed in PBS plus 2% paraformaldehyde for 10 minutes at 37° C. Fixed cells were washed twice with staining buffer (PBS/1% BSA/0.1% NaN3) and then permeabilized with perm buffer III (BD Pharmingen) on ice for 30 minutes. Cells were then washed twice with staining buffer and PE-conjugated anti-STAT3 (pY705) (BD Pharmingen) was added per the manufacturer's instructions and incubated with cells at room temperature for 45-60 minutes. Cells were then washed and stored in staining buffer prior to data acquisition. Foxp3 intracellular staining was performed using a Foxp3 intracellular staining kit (eBioscience—San Diego, Calif.) in accordance with the manufacturer's instructions. […] All FACS data was acquired on a FACSCalibur flow cytometer (BD Pharmingen) and analyzed using FlowJo software (Treestar, Inc.—Ashland, Oreg.). […]
# [1] = type: in vitro ADME; settings: mouse, 2 h, 20 nM
# Description: MEFs were incubated with the indicated concentration of HF in the presence or absence of 2 mM proline for 2 hours and then lysed. Lysates were then tested for HF levels in comparison to a standard curve using known concentrations of HF with an anti-HF antibody based ELISA assay (see Example 9, “Materials and Methods”). Error bars reflect standard deviation of triplicate determinations. Similar results were obtained in three separate experiments.
# Polyclonal anti-HF antibody was raised by immunizing rabbits with KLH coupled to an HF derivative (MAZ1356) containing a linker attached to the quinazolinone and terminated by a primary amino group. Crude antibody was affinity purified using MAZ1356 linked to NHS-agarose. For the ELISA assay, MAZ1356 was coupled to 96-well Reacti-bind Plates (Pierce). After binding, plates were blocked with 10% goat serum in PBS/0.2% Tween-20 (PBST). […] Captured antibody was quantitated using TMB based colorimetric detection (Pierce), and a standard curve for HF concentration fitted from the colorimetric data. […] To determine HF concentration in cells, 8 μl of cleared lysate (or control buffer) was incubated with anti-HF antibody in MAZ1356 bound wells, and captured antibody detected and quantitated as described above. HF concentration was then determined by fitting colorimetry results with cell samples to a standard curve of HF concentration. […]
# mTOR pathway = mTOR pathway signaling in fibroblasts; type: cell-based, mouse; settings: 100 nM HF
# Description: FIG. 25. […] MEFs growing in DME/10% FCS were treated with 100 nM HF or 0.5 μM Rapamycin and analyzed by Western blot for phosphorylation of component of the mTor signaling pathway. Lane 1: 100 nM MAZ1310 1 hr; Lane 2: 100 nM HF 8 hr; Lane 3: 100 nM HF 4 hr; Lane 4: 100 nM HF 2 hr; Lane 5: 100 nM HF 1 hr; Lane 6: 0.5 μM Rapamycin 1 hr.
smiles,measurement,setting,value
"O=C(CC1NCCCC1O)Cn1cnc2cc(Br)c(Cl)cc2c1=O (racemic) [HF, halofuginone]",activity in EAE and CIA models,EAE and CIA,active in these models
same,time post activation at which STAT3 phosphorylation begins to decrease,STAT3 phosphorylation,around 12 hours
same,STAT3 activation during the first 6 hours of Th17 differentiation,STAT3 phosphorylation; 5-10 nM HF,did not interfere with STAT3 activation
same,maintenance of STAT3 phosphorylation,STAT3 phosphorylation; 5-10 nM HF,decreased the maintenance of STAT3 phosphorylation
same,absolute HF concentration inside cells,[1],~800 nM
same,signaling downstream of mTOR,mTOR pathway,does not directly inhibit downstream targets of the mTOR pathway; also recorded: did not inhibit signaling downstream of mTOR; also recorded: without concomitant inhibition of mTOR signaling
